From ChEMBL document CHEMBL5465560, “Selectivity Literature for EUbOPEN Chemogenomic Library” (2024)

Tests used:
[1] = molecular target: T1, Dual specificity mitogen-activated protein kinase kinase 5 (Homo sapiens) (UniProt Q13163); experiment: Selectivity interaction (KinomeScan (DiscoverX)) EUB0000655a MAP2K5; conditions: at 10 µM
T1 sequence (whole entry): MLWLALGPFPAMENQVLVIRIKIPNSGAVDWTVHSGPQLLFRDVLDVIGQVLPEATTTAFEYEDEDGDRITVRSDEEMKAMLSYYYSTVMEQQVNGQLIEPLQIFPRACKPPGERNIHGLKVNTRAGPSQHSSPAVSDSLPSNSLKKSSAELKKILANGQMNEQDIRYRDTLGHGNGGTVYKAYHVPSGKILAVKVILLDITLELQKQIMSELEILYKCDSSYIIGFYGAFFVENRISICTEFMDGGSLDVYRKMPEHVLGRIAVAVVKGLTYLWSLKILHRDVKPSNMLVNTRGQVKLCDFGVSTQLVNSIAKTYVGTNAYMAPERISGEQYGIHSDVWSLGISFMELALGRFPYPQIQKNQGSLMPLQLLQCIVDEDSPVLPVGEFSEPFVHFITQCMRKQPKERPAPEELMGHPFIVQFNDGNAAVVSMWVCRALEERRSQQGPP

[2] = molecular target: Death-associated protein kinase 2 (Homo sapiens) (UniProt Q9UIK4); experiment: Selectivity interaction (KinomeScan (DiscoverX)) EUB0000666a DAPK2; conditions: at 10 µM
[3] = molecular target: Mitogen-activated protein kinase 8 (Homo sapiens, UniProt P45983); experiment: Selectivity interaction (KinomeScan (DiscoverX)) EUB0000666a MAPK8; conditions: at 10 µM
[4] = system: T2, Receptor-type tyrosine-protein kinase FLT3 (Homo sapiens), P36888 [D835Y]; experiment: Selectivity interaction (KinomeScan (DiscoverX)) EUB0000045b FLT3
T2 sequence (whole entry): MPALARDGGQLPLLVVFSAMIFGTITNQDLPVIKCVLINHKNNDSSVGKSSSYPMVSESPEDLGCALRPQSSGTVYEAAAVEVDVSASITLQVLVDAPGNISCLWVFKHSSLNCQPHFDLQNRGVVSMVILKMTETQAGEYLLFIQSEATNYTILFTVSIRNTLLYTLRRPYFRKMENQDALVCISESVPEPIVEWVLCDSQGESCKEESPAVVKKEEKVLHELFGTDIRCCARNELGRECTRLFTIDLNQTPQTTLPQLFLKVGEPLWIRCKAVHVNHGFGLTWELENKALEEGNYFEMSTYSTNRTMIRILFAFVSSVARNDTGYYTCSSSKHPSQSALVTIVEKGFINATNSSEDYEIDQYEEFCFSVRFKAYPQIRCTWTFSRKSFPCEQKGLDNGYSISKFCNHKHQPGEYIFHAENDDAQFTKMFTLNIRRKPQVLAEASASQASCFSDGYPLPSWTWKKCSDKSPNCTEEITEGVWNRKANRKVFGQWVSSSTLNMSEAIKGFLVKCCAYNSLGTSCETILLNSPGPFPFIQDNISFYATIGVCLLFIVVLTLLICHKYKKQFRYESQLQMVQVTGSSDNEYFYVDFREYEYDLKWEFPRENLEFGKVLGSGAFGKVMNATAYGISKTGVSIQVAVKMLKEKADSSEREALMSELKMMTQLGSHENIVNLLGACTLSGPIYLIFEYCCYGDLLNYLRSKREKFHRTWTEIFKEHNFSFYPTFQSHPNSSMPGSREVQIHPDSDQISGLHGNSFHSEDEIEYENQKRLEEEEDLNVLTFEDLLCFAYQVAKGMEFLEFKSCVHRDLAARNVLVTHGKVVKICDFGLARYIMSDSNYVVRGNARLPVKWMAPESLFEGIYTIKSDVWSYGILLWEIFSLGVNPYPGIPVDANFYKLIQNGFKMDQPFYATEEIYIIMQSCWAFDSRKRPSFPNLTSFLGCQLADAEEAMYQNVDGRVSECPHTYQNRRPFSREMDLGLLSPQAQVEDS

[5] = molecular target: ALK tyrosine kinase receptor (Homo sapiens, UniProt Q9UM73); experiment: Selectivity interaction (KinomeScan (DiscoverX)) EUB0000618a ALK; conditions: at 10 µM
[6] = molecular target: Casein kinase I isoform gamma-1 (Homo sapiens) (UniProt Q9HCP0); experiment: Selectivity interaction (KinomeScan (DiscoverX)) EUB0000618a CSNK1G1; conditions: at 10 µM
[7] = molecular target: Receptor tyrosine-protein kinase erbB-2 (Homo sapiens, UniProt P04626); experiment: Selectivity interaction (Ambit KINOMEscan and KiNATiv profiling in Jurkat cells) EUB0000090b ERBB2; assay type: cell-based; conditions: at 1 µM
[8] = molecular target: T3, Tyrosine-protein kinase ZAP-70 (Homo sapiens) (UniProt P43403); experiment: Selectivity interaction (Ambit KINOMEscan and KiNATiv profiling in Jurkat cells) EUB0000090b ZAP70; assay type: cell-based; conditions: at 1 µM
T3 sequence (whole entry): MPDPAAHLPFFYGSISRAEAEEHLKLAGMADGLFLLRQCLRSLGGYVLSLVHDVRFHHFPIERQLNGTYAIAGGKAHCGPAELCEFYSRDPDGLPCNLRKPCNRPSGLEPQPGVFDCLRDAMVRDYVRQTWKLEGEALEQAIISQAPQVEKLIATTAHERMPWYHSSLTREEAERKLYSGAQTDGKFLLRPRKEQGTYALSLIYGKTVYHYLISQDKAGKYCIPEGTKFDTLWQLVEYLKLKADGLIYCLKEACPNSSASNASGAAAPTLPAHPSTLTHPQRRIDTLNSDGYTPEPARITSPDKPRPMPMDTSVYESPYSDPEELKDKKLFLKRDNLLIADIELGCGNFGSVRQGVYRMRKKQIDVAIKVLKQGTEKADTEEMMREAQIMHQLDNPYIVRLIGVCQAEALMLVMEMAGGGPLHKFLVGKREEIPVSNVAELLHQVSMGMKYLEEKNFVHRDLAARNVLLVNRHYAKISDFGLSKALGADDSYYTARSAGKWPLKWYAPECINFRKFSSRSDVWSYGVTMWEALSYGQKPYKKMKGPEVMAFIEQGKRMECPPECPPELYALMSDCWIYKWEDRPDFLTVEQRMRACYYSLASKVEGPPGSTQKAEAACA

[9] = molecular target: T4, Phosphorylase b kinase gamma catalytic chain, liver/testis isoform (Homo sapiens) (UniProt P15735); experiment: Selectivity interaction (Kinase screening (Nanosyn)) EUB0000604a PHKG2
T4 sequence (whole entry): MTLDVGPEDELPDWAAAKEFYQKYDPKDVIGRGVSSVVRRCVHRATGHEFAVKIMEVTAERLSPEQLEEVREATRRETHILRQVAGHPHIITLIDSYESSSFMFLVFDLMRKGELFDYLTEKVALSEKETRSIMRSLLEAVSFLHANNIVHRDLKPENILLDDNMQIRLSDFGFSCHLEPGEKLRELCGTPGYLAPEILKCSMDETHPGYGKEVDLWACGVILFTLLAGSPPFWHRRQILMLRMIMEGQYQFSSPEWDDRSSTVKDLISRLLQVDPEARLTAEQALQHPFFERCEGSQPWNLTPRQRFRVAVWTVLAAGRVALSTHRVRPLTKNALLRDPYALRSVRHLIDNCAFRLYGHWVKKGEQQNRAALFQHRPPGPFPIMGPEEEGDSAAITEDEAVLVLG

Sequence of Casein kinase I isoform gamma-1 (Homo sapiens) (Q9HCP0 whole entry, looked up, canonical isoform): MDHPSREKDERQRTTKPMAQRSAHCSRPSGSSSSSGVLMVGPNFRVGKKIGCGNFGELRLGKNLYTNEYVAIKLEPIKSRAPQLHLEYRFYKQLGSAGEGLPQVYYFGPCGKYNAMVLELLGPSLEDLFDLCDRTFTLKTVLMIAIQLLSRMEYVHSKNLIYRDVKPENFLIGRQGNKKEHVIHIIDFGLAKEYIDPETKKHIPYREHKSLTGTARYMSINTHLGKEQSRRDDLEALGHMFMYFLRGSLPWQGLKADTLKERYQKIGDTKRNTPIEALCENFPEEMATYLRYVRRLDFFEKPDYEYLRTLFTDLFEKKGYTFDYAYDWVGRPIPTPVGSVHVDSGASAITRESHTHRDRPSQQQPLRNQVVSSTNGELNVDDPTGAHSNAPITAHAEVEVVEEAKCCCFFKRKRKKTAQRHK
Sequence of Receptor tyrosine-protein kinase erbB-2 (P04626 whole entry): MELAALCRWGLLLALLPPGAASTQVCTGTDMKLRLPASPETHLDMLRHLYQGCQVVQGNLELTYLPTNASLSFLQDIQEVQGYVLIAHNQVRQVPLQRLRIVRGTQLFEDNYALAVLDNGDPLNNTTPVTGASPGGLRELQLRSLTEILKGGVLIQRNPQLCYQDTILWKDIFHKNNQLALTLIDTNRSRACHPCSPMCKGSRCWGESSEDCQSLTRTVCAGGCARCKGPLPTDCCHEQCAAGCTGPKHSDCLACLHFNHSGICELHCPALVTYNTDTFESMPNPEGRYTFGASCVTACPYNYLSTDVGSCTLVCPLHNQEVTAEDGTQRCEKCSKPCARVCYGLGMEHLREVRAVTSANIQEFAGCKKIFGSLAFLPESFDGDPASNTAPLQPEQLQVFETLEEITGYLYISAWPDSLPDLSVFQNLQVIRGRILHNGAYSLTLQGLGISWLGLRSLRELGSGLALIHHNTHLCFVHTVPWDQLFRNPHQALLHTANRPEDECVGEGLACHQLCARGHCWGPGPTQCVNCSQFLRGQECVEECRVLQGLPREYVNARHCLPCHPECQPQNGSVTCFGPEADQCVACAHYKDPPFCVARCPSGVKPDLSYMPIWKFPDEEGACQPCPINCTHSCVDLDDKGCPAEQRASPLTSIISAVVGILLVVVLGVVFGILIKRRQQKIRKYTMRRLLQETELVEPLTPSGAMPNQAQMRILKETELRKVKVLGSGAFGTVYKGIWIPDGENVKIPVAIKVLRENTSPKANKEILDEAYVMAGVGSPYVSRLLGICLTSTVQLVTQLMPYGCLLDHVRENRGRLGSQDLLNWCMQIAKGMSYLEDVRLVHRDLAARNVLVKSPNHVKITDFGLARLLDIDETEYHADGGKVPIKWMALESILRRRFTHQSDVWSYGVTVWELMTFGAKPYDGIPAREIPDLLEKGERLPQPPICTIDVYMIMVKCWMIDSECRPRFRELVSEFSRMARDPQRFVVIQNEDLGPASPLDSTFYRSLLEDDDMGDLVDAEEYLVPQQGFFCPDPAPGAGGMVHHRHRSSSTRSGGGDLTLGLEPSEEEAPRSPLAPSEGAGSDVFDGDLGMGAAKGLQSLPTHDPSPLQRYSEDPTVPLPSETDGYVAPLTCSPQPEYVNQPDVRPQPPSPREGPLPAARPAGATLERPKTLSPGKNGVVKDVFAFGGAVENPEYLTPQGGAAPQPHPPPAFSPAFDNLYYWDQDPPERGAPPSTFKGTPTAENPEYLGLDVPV
Sequence of Death-associated protein kinase 2 (Homo sapiens) (Q9UIK4 whole entry, looked up): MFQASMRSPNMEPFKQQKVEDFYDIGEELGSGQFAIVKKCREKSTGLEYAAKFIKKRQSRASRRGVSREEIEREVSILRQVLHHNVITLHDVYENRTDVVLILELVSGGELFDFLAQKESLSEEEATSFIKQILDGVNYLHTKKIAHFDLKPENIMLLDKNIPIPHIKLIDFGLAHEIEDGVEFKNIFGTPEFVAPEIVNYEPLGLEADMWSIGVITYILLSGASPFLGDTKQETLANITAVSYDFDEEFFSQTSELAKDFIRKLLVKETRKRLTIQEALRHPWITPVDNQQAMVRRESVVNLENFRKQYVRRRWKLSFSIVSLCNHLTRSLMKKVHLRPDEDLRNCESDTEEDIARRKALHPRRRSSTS
Sequence of ALK tyrosine kinase receptor (Q9UM73 19-1620 limits assumed): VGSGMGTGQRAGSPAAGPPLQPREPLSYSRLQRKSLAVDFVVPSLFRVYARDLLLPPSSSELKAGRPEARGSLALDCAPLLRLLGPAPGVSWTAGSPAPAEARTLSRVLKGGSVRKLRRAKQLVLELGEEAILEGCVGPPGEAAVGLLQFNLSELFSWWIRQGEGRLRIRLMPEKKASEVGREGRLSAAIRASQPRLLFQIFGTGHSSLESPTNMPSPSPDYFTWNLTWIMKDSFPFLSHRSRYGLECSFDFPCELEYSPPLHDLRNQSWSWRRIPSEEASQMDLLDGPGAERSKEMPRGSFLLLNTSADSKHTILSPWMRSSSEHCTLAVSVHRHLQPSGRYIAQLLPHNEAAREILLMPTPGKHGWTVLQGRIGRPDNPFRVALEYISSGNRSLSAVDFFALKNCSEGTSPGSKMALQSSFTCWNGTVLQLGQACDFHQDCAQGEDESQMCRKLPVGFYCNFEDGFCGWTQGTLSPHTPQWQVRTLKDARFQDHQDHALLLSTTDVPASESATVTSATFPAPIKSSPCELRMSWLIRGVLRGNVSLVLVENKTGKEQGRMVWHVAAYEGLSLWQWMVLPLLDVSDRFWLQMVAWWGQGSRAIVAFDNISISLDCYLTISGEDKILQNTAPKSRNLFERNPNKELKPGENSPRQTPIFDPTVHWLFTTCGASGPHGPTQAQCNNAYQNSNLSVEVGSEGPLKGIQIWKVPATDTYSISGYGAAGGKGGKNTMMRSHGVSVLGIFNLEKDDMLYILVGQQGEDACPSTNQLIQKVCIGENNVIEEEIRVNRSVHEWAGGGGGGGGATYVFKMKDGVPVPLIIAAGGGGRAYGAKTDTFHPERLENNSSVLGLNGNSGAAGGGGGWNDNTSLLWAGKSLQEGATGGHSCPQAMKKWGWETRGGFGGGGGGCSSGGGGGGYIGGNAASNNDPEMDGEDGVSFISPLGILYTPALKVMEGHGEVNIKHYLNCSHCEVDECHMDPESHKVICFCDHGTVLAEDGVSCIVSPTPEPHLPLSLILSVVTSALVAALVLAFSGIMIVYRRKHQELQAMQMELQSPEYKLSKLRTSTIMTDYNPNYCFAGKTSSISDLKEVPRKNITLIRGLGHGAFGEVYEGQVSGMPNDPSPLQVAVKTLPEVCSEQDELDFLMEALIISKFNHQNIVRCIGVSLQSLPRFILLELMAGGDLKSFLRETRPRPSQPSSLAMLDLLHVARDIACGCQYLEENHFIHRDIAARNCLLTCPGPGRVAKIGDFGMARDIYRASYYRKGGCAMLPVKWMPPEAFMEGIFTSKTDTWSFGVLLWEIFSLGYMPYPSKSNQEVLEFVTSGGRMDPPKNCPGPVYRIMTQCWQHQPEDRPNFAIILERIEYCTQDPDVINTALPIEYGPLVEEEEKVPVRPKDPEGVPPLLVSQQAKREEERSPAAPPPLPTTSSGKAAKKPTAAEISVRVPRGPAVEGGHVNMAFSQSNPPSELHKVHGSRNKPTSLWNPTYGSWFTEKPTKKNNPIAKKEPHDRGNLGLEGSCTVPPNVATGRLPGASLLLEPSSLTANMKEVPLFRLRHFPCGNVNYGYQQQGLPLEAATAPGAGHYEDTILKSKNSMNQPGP
Sequence of Mitogen-activated protein kinase 8 (P45983 whole entry): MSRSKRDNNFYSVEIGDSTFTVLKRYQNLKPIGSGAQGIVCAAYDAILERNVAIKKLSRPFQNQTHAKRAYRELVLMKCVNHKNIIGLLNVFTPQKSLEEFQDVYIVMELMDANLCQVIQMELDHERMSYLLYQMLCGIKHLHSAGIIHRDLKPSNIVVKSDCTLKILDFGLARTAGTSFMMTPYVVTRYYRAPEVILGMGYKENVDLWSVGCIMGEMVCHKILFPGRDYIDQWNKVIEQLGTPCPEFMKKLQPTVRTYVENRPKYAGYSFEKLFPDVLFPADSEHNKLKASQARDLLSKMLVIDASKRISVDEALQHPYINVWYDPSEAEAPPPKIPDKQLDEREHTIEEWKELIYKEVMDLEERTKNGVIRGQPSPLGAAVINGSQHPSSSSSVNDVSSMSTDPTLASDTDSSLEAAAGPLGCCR

**Q.** With `CN(C)CCOc1ccc(-c2nc(-c3ccncc3)c(-c3ccc4c(c3)CC/C4=N\O)[nH]2)cc1` as the compound, how does the % of control [1] read?
**A.** 22%

**Q.** What does the source list for `O=C(NOC[C@H](O)CO)c1ccc(F)c(F)c1Nc1ccc(I)cc1F`?
**A.** % of control [2]: 100%; % of control [3]: 92%

**Q.** What does the source list for `C=CC(=O)Nc1cc(-n2c(=O)ccc3cnc4ccc(-c5ccc(NS(C)(=O)=O)cc5)cc4c32)ccc1C`?
**A.** % of control ([4]; at 1 µM): 100%; % of control ([4]; at 10 µM): 100%

**Q.** `O[C@H]1CC[C@H](Nc2ncc3nc(Nc4c(F)cc(F)cc4F)n([C@H]4CCOC4)c3n2)CC1` was tested. Which % of control [5] did it give?
**A.** 100%

**Q.** And the % of control [6]?
**A.** 100%

**Q.** How did the % of control [7] turn out when `CN(C)C/C=C/C(=O)Nc1ccc(C(=O)N2CCCC(Nc3ncc(Cl)c(-c4c[nH]c5ccccc45)n3)C2)cc1` (stereo not given) was run?
**A.** 96%

**Q.** What about the % of control [8] of the same compound?
**A.** 86%

**Q.** With `Cc1cnc(Nc2ccc(F)cc2Cl)nc1-c1c[nH]c(C(=O)N[C@H](CO)c2cccc(Cl)c2)c1` as the compound, how does the % of inhibition [9] read?
**A.** 4%
